From US7057012B1, “PTH functional domain conjugate peptides, derivatives thereof and novel tethered ligand-receptor molecules” (The General Hospital Corporation, priority 1998, dated 2006)

Legend:
[1] = target: T1, rat PTH-1 receptor (Rattus norvegicus, UniProt P25961); conditions: CHO cells expressing the cloned rat PTH-1 receptor; cited from earlier work
T1 construct: host or cells: CHO cells
T1 sequence (P25961 27-591): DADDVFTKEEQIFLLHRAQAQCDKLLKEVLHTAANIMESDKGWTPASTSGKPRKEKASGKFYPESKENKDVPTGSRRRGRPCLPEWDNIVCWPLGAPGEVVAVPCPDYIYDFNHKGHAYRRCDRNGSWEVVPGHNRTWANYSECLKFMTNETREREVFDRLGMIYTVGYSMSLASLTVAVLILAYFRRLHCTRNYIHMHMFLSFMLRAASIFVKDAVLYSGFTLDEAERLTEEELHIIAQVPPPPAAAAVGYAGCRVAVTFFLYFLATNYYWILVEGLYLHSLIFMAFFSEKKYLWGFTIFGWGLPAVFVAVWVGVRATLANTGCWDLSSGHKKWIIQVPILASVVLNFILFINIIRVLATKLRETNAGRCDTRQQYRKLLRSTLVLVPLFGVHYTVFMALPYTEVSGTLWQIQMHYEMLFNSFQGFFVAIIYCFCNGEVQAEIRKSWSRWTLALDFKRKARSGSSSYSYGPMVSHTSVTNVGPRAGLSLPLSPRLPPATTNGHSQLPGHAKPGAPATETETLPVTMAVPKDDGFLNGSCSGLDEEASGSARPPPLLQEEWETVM

[2] = tested on: rat renal membranes; conditions: cited from earlier work
[3] = tested on: hP1R-Tether constructs; test: Q-PTH(1–34) cAMP stimulation of the hP1R-Tether constructs and alanine mutants in COS-7 cells; type: cell-based, human
Experimental: (§1) Cell Culture: COS-7 cells were cultured at 37° C. in T-75 flasks ([…] in Dulbecco's modified Eagle's medium (DMEM) supplemented with fetal bovine serum (10%), penicillin G (20 units/ml), streptomycin sulfate (20 μg/ml) and amphotericin B (0.05 μg/ml) in a humidified atmosphere containing 5% CO2. Cells were sub-cultured in 24-well plates and, when confluent, were treated with fresh media and shifted to 33° C. for 12 to 24 h prior to the assay (Bergwitz, C., et al., J. Biol. Chem. 272:28861–28868 (1997); Abell, A., et al., J. Biol. Chem. 271:4518–4527 (1996)).
(§2) PTH Receptor mutagenesis and COS-7 cell expression: The pcDNA-1-based plasmid encoding the intact HPTH-1 receptor (HK-WT in reference (Schipani, E., et al., Endocrinol. 132:2157–2165 (1993)) and herein called hP1R-WT) was used for studies in COS-7 cells. The truncated human PTH-1 receptor (hP1R-de1Nt) (FIG. 18) was constructed from the HK-WT plasmid by oligonucleotide-directed mutagenesis (Kunkel, T. A., Proc. Natl. Acad. Sci. USA 82:488–492 (1985)). […]
(§3) cAMP Stimulation: Stimulation of cells with peptide analogs was performed in 24-well plates. […] The cAMP content of the diluted lysate was determined by radioimmunoassay.

[4] = target: T2, hP1r-de1NT (Homo sapiens, UniProt Q03431); test: Q-PTH(1–34) cAMP dose-response, COS-7 cells expressing hP1R-delNT; type: cell-based
T2 construct: expressed in transfected cells; host or cells: COS-7 cells, transient, DEAE-dextran
T2 sequence (Q03431 with tags, fused parts or gaps): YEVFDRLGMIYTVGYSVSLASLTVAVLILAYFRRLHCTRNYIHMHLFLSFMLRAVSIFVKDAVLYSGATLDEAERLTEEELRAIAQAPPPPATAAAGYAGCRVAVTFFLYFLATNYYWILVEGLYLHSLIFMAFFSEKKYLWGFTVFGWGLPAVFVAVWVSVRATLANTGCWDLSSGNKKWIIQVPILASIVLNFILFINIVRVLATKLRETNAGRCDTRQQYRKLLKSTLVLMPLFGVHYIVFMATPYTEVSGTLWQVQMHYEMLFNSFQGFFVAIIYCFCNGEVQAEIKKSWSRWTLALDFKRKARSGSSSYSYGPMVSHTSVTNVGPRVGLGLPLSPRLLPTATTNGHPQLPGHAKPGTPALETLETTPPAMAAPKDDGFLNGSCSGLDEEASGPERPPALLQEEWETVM
Experimental: as §1, §2, §3

[5] = target: T3, hP1R-Tether(1–9) (Homo sapiens, UniProt Q03431); test: Q-PTH(1–34) cAMP dose-response, COS-7 cells expressing hP1R-Tether(1–9); type: cell-based
T3 construct: expressed in transfected cells; host or cells: COS-7 cells, transient, DEAE-dextran
T3 sequence (Q03431 with tags, fused parts or gaps): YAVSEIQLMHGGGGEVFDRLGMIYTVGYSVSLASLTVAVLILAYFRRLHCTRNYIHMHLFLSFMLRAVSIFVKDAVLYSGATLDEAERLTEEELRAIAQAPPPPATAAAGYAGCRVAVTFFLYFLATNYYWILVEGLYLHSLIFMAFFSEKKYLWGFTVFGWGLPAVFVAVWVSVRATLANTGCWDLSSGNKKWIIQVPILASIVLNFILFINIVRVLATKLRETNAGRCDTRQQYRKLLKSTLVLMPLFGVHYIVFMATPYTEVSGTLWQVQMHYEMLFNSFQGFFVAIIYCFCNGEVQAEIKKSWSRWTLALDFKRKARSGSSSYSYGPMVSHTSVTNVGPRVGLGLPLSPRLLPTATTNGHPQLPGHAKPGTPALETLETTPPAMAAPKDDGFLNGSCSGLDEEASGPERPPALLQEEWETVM
Experimental: as §1, §2, §3

[6] = target: T4, hP1R-[R^11]-Tether(1–11) (Homo sapiens, UniProt Q03431); test: Q-PTH(1–34) cAMP dose-response, COS-7 cells expressing hP1R-[R11]-Tether(1–11); type: cell-based
T4 construct: expressed in transfected cells; host or cells: COS-7 cells, transient, DEAE-dextran
T4 sequence (Q03431 with tags, fused parts or gaps): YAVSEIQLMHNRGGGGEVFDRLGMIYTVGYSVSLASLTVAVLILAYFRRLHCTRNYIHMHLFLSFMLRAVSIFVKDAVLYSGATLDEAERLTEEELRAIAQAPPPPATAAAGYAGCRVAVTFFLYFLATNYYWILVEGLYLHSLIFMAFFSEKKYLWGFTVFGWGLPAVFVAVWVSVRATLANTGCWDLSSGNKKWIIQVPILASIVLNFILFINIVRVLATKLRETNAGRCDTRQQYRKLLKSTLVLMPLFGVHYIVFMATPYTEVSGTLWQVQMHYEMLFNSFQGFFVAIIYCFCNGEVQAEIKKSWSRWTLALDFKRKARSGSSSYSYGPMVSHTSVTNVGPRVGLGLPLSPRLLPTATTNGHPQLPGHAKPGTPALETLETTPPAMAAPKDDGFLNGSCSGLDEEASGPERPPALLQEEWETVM
Experimental: as §1, §2, §3

[7] = target: T5, the receptor (Homo sapiens, UniProt Q03431); conditions: cited from earlier work
T5 sequence (Q03431 27-593): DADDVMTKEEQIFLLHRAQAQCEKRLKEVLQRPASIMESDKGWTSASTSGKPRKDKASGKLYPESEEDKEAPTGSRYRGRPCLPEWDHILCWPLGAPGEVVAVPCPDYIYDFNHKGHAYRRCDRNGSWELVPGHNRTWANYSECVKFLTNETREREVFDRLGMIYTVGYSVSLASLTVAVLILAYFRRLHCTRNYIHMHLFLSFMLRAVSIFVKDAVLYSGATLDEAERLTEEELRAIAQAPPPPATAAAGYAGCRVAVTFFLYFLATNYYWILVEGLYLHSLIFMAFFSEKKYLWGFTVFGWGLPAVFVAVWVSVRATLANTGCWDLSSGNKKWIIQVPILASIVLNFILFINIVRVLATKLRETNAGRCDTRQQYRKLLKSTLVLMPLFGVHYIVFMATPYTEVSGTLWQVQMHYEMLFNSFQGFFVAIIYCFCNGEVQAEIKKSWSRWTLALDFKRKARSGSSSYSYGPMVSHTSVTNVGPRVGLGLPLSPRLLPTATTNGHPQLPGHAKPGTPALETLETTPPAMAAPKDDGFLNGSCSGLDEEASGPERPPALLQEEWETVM

[8] = tested on: AC; conditions: cited from earlier work

PTHrP(1–16) (AVSEHQLLHDKGKSIQ; Parathyroid hormone-related protein; UniProt P12272 37-52, looked up, fragment) [short NH2-terminal PTHrP peptide investigated previously]
activity in AC assays [1]: inactive

bPTH(1–12) (AVSEIQFMHNLG; Parathyroid hormone; UniProt P01268 32-43, looked up, fragment) [short NH2-terminal PTH peptide investigated previously]
activity in adenylyl cyclase assays [2]: inactive

[Ala^1,3,10,12,Arg^11, Tyr^34]hPTH(1–34)NH2 [Q-PTH(1–34)]
dose-response curves for the hP1R-Tether constructs relative to hP1R-de1NT [3]: parallel and left-shifted | cAMP response of the alanine mutants of hP1R-[R11]-Tether(1–11) to exogenous ligand ([3]; alanine scan mutants): responded well | cAMP dose-response relative to the intact wildtype receptor [4]: right-shifted response | maximum cAMP response [4]: capable of producing a maximum cAMP response | cAMP dose-response relative to the intact wildtype receptor [5]: right-shifted response | maximum cAMP response [5]: capable of producing a maximum cAMP response | cAMP dose-response relative to the intact wildtype receptor [6]: right-shifted response | maximum cAMP response [6]: capable of producing a maximum cAMP response

PTH(15–34)
binding to the receptor [7]: binds weakly | activation of AC [8]: does not activate AC
